This is an account of results in patent publication US10800778B2 (Entasis Therapeutics Limited, priority 2016, dated 2020).

A value given as a limit tells only on which side of the number the result lay.

The nature of data set [1]: Stability/conversion of esters in human liver S9. The class given is in vitro ADME. On the procedure: (§1) The human intestinal S9 with the absence of PMSF, human liver S9, rat intestinal S9, and rat liver S9 preparations were obtained from Xenotech (Lenexa, Kans.). The 500-μL incubation solution contained 0.8 mg/mL of enzyme (or no enzyme for buffer stability), 10 μM of test compounds in 100 mM of HEPES buffer, pH 7.4. The hydrolysis reactions were conducted in a 1-mL glass insert (Analytical Sales, Pompton Plains, N.J.) in a shake water bath at 37° C. At 0, 2, 5, 10, 15, 30 and 60 min, the reaction was terminated by pipetting 50 μL incubate to a 96 DeepWell plate (Thermo Fisher Scientific, Rochester, N.Y.) containing 100 μL of acetonitrile with 250 ng/mL of Carbutamide (Sigma-Aldrich, St. Louis, Miss.) as the internal standard. The crashed solutions were then vortexed well followed by centrifuge at 4000 rpm for 15 min at 4° C. The extract was transferred to a new 96 DeepWell plate for LC-MS/MS analysis.
(§2) LC-MS/MS analysis was done using an AB Sciex QTrap 6500 mass spectrometer under positive ionization mode, coupled to a Schimadzu Nexera LC system.
(§3) A Waters Atlantis T3 (3 μm, 3.0×50 mm) column was used for separation. The mobile phase consisted 0.1% formic acid in water (A) and 0.1% formic acid in acetonitrile (B) with a flow rate set at 1.2 mL/min. For the prodrug analysis, the Multiple Reaction Monitoring (MRM) specific for each compound was set up so that both prodrug and its hydrolyzed active can be monitored simultaneously.
(§4) Half-lives listed are based on disappearance of starting ester.

The nature of data set [2]: Stability/conversion of esters in rat intestinal S9. The class given is in vitro ADME. On the procedure:
as §1, §2, §3, §4

The nature of data set [3]: Stability in pH 7.4 buffer (no enzyme). The class given is physicochemical. As to conditions: read-out: T1/2 pH 7.4 Buffer. As for the experimental part: as §1, §2, §3, §4
Data set [4] is described as follows: Stability/conversion of esters in human intestinal S9. The class given is in vitro ADME. On the procedure: as §1, §2, §3, §4
Data set [5] is described as follows: Stability/conversion of esters in rat liver S9. The format is in vitro ADME. As for the experimental part: as §1, §2, §3, §4
[6] abbreviates: liver S9, pH 7.4, read-out: T1/2 Human Liver S9.
Where [7] appears, read: intestinal S9, pH 7.4, read-out: T1/2 Rat Intestinal S9.
Where [8] appears, read: intestinal S9 (without PMSF), pH 7.4, read-out: T1/2 Human Intestinal S9.
Setting [9] is: liver S9, pH 7.4, read-out: T1/2 Rat Liver S9.

Consider `CCOC(=O)C(F)(F)ON1C(=O)N2C[C@H]1C=C(C)[C@H]2C(N)=O` [Example 7, ethyl {[(2S,5R)-2-carbamoyl-3-methyl-7-oxo-1,6-diazabicyclo[3.2.1]oct-3-en-6-yl]oxy}(difluoro)acetate], for which the half-life at 10 μM turned out to be 0.8 min in data set [1] (setting [6]); 3.9 min in data set [2] (setting [7]); 3.9 min in data set [3] (HEPES buffer without enzyme); 2.4 min in data set [4] (setting [8]); 0.5 min in data set [5] (setting [9]).
In the case of `CCOC(=O)C(F)(F)ON1C(=O)N2C[C@H]1C(C)=C[C@H]2C(N)=O` [Example 90, ethyl 2-(((2S,5R)-2-carbamoyl-4-methyl-7-oxo-1,6-diazabicyclo[3.2.1]oct-3-en-6-yl)oxy)-2,2-difluoroacetate], the half-life at 10 μM in data set [1] (setting [6]) is 0.7 min; in data set [2] (setting [7]), 3.3 min; in data set [3] (HEPES buffer without enzyme), 2.9 min; in data set [4] (setting [8]), 1 min; in data set [5] (setting [9]) it was 0.7 min.
Turning to `C=CCOC(=O)[C@@H](F)ON1C(=O)N2C[C@H]1C=C(C)[C@H]2C(N)=O` [Example 47, allyl (2R)-2-[[(2S,5R)-2-carbamoyl-3-methyl-7-oxo-1,6-diazabicyclo[3.2.1]oct-3-en-6-yl]oxy]-2-fluoro-acetate], the half-life at 10 μM in data set [1] (setting [6]) came to 2.3 min; in data set [2] (setting [7]) it was 11 min; in data set [3] (HEPES buffer without enzyme), 12 min; in data set [4] (setting [8]) it was 8.2 min; in data set [5] (setting [9]), 1.8 min.
Taken in the same sequence, the figures for `CCOC(=O)CON1C(=O)N2C[C@H]1C(C)=C[C@H]2C(N)=O` [Example 92, ethyl 2-(((2S,5R)-2-carbamoyl-4-methyl-7-oxo-1,6-diazabicyclo[3.2.1]oct-3-en-6-yl)oxy)acetate] were 24.8 min, 397 min, 161 min, 193 min and 11 min.
As to `CC1=C[C@@H]2CN(C(=O)N2O[C@H](F)C(=O)Oc2ccc3c(c2)CCC3)[C@@H]1C(N)=O` [Example 65, indan-5-yl (2R)-2-[[(2S,5R)-2-carbamoyl-3-methyl-7-oxo-1,6-diazabicyclo[3.2.1]oct-3-en-6-yl]oxy]-2-fluoro-acetate], the half-life at 10 μM in data set [1] (setting [6]) is below 1 min; in data set [2] (setting [7]) it was 1.3 min; in data set [3] (HEPES buffer without enzyme) it was 1.7 min; in data set [4] (setting [8]), below 1 min; in data set [5] (setting [9]), below 1 min.
As to `CCOC(=O)[C@H](F)ON1C(=O)N2C[C@H]1C=C(C)[C@H]2C(=O)NCO` [Example 85, ethyl (2S)-2-fluoro-2-[[(2S,5R)-2-(hydroxymethylcarbamoyl)-3-methyl-7-oxo-1,6-diazabicyclo[3.2.1]oct-3-en-6-yl]oxy]acetate], the half-life at 10 μM was determined as 3.5 min in data set [1] (setting [6]); 21 min in data set [2] (setting [7]); 26 min in data set [3] (HEPES buffer without enzyme); 20 min in data set [4] (setting [8]); 3.8 min in data set [5] (setting [9]).
Taken in the same sequence, the figures for `CC1=C[C@@H](C(N)=O)N2C[C@@H]1N(OCC(=O)OC(C)C)C2=O` [Example 96, isopropyl 2-(((2S,5R)-2-carbamoyl-4-methyl-7-oxo-1,6-diazabicyclo[3.2.1]oct-3-en-6-yl)oxy)acetate] were 57 min, 211 min, above 100 min, 1480 min and 10.3 min.
Turning to `CC1=C[C@@H](C(N)=O)N2C[C@@H]1N(O[C@@H](F)C(=O)OC(C)C)C2=O` [Example 36, (2S)-isopropyl 2-(((2S,5R)-2-carbamoyl-4-methyl-7-oxo-1,6-diazabicyclo[3.2.1]oct-3-en-6-yl)oxy)-2-fluoroacetate], the half-life at 10 μM in data set [1] (s9, pH 7.4, read-out: T1/2 Human Liver S9) stood at 8.5 min; in data set [2] (s9, pH 7.4, read-out: T1/2 Rat Intestinal S9), 68 min; in data set [3] (buffer), 91 min; in data set [4] (s9, pH 7.4, read-out: T1/2 Human Intestinal S9) it was 36 min; in data set [5] (s9, pH 7.4, read-out: T1/2 Rat Liver S9) it was 3 min.
